{
  "source": "patent US20250375436A1",
  "about": "“SERDEXMETHYLPHENIDATE FOR TREATMENT OF IDIOPATHIC HYPERSOMNIA” (ZEVRA THERAPEUTICS, INC., priority 2024, published 2025)",
  "origin": "cited, not measured here",
  "system": "Patients with IH",
  "conditions": "cited from earlier work",
  "data": [
    {"compound": "O=C(O)CCCO", "note": "[oxybate]", "values": [
      {"measurement": "TEAE anxiety", "setting": "in vivo", "result": 11, "unit": "%"},
      {"measurement": "TEAE dizziness", "setting": "in vivo", "result": 12, "unit": "%"},
      {"measurement": "TEAE headache", "setting": "in vivo", "result": 18, "unit": "%"},
      {"measurement": "TEAE nausea", "setting": "in vivo", "result": "22 % of subjects"},
      {"measurement": "TEAE vomiting", "setting": "in vivo", "result": 11, "unit": "%"},
      {"measurement": "Patients reporting worsening symptoms (PGI-C scale)", "setting": "oxybate-treated patients", "result": 21, "unit": "%"}
    ]}
  ]
}
